These results are taken from patent publication US8399509B2, “Glucopyranoside derivatives” (Merck Patent Gesellschaft mit beschrankter Haftung, priority 2008, dated 2013).

One assay concerns the target T1, SGLT2 (Homo sapiens, UniProt P31639).
T1 construct: expressed in transfected cells
T1 sequence (P31639 1-672): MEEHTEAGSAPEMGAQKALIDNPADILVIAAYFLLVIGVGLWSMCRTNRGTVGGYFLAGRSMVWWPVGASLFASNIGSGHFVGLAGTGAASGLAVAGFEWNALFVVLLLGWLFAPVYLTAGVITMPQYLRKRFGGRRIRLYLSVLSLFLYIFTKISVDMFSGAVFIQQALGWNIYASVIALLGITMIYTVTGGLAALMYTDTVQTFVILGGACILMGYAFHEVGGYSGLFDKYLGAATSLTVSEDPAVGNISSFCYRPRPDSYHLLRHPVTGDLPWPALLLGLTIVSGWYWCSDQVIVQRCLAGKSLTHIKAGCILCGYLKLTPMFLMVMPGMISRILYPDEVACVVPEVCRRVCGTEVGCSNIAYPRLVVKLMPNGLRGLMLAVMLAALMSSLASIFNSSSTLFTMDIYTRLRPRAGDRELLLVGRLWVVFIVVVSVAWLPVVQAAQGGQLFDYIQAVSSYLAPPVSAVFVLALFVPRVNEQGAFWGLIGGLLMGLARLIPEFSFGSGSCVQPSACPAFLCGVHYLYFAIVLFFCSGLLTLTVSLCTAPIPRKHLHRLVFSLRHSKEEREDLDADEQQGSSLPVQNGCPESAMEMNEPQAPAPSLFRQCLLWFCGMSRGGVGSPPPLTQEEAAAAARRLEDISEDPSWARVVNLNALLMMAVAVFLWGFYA
Nature of the assay: 14C-AMG uptake in BHK cells transfected with SGLT2. It counts as cell-based. The conditions noted are these: 2 mM AMG, 37° C., 90 min. The source says:
(§1) The compounds can be tested for their SGLT inhibition properties by means of BHK cells expressing SGLT1 and SGLT2. The production of the cells and the testing can be carried out as described below.
Construction and Expression of SGLT2 in BHK Cells
To construct the SGLT2 expression vector (KL224), the SLC5A2 gene (homologous to NM_003041) was amplified from a cDNA library using standard PCR technology and cloned over NheI/XhoI sites into PCI-neo expression vector (Promega) containing neomycin as a selection marker. In this vector, transcription uses the enhancer/promoter of human cytomegalovirus and the SV40 polyadenylation signal.
(§2) The final vector KL224 together with an additional vector containing a dihydrofolate reductase gene as a selection marker was introduced into cells. Transfection into BHK21 cells (ATCC CCL-10), cultivated in DMEM medium (GIBCO/BRL), supplemented with 10% foetal calf serum (FCS) and 20 mM glutamine, was carried out using calcium phosphate transfections according to Graham, F. L. and van der Ebb, A. J. (1973), Virology 52: 456 with 5-20 μg of uncut plasmids for 10^7 cells. Stable transfectants were selected in medium containing 1 mg/ml of G418 (GIBCO/BRL) and 20-5000 nM methotrexate as final concentration, where only cells which expressed the neomycin gene and overexpressed the dhfr gene were able to grow. After growth for 2-3 weeks, the cells were cloned (0.5 cells/well) and the clones were investigated for SGLT expression in radioactivity uptake tests.
(§3) Method of SGLT1/2 Activity Measurement
(§4) The uptake of ^14C-α-methyl-D-glucopyranoside (AMG) in, for example, Xenopus oocytes injected with the corresponding cRNA has been described in principle (for example Wen-Sen Lee et al. (1994), J. Biol. Chem. 269, 12032-12039; Guofeng You et al. (1995), J. Biol. Chem. 270, 29365-29371).
(§5) A 96-well cell-based assay was developed and adapted to HTS requirements:
(§6) BHK cells (transfected with SGLT1 or SGLT2) were seeded into 96-well microtitre plates (Cultureplates, Perkin Elmer). After at least 24 h, medium was removed, and the cell layer was washed with assay buffer (140 mM NaCl, 2 mM KCl, 1 mM CaCl2, 1 mM MgCl2, 10 mM HEPES, 5 mM Tris, adjusted to pH 7.4 using 1 M KOH). After addition of 40 μl of assay buffer, 50 μl of AMG (50 μM for SGLT1 and 2 mM for SGLT2) in the presence or absence of compounds, the cells were incubated in a total volume of 100 μl at 37° C. for 90 min. Supernatant was removed by suction and discarded. Cells were washed and lysed by addition of 50 μl of water. After 10 min at room temperature, 200 μl of Micrsoscint 40 (Perkin Elmer) were added. The radioactivity was counted in a Topcount microplate scintillation counter (Perkin Elmer). The non-specific uptake was determined in sodium-free assay buffer (266 mM sucrose, 2 mM KCl, 1 mM CaCl2, 1 mM MgCl2, 10 mM HEPES, 5 mM Tris, adjusted to pH 7.4 using 1 M KOH).

In a further assay the target is T2, SGLT1 (Homo sapiens, UniProt P13866).
T2 construct: expressed in transfected cells
T2 sequence (P13866 1-664): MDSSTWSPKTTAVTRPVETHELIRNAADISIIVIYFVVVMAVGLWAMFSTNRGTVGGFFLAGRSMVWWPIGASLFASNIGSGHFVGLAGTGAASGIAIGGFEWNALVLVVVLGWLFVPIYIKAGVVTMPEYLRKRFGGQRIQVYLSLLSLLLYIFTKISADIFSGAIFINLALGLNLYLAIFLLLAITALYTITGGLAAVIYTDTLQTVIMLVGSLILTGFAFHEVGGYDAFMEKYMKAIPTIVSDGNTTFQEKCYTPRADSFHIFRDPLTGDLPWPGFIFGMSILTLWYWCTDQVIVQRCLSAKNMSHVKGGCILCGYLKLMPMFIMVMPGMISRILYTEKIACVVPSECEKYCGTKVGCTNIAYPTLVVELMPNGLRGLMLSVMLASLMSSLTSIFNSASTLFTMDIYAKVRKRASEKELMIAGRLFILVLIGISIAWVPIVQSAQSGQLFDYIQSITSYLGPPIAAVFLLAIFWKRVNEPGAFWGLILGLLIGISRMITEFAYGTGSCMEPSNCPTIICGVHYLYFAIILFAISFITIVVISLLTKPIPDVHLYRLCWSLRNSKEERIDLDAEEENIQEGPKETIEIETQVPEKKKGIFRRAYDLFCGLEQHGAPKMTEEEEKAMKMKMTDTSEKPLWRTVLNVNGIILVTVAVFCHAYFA
Briefly: 14C-AMG uptake in BHK cells transfected with SGLT1. It counts as cell-based. The settings on record: 50 μM AMG, 37° C., 90 min.
From the text: as §1
Construction and Expression of SGLT1 in BHK Cells
To construct the SGLT1 expression vector (KL225), the SLC5A1 gene (homologous to NM_000343) was amplified from a cDNA library using standard PCR technology and cloned over NheI/XhoI sites into the pcDNA3.1 expression vector (Invitrogen) containing neomycin as a selection marker. In this vector, transcription uses the enhancer/promoter of human cytomegalovirus.
as §2, with “KL225” for “KL224”
as §3, §4, §5, §6

In general, IC50 refers to the midpoint of a concentration-inhibition curve. Higher therefore signals lower potency. Consider “5-(β-D-Glucopyranos-1-yl)-3-(4-methoxyphenyl)benzofuran [Compound A7]”, for which the results for the half-inhibitory concentration (IC50) at SGLT2 and against SGLT1 were 1 to 10 µM and above 10 µM, respectively.

Take “5-(β-D-glucopyranos-1-yl)-2-(4-methoxyphenyl)benzofuran [Compound A8]”: the IC50 on SGLT2 and against SGLT1 was above 10 µM each time.

Regarding “6-(β-D-glucopyranos-1-yl)-1R-(4-methoxyphenyl)indane [Compound A3]”, the concentration for half-maximal inhibition (IC50) against SGLT2 and against SGLT1 was above 10 µM throughout.

For “6-(β-D-glucopyranos-1-yl)-3R-(4-methoxyphenyl)indane [Compound A14]”, the IC50 at SGLT2 and at SGLT1 was above 10 µM throughout.

On to `COc1ccc(C2CCc3ccc([C@@H]4O[C@H](CO)[C@@H](O)[C@H](O)[C@H]4O)cc32)cc1` (stereo partly drawn) [Compound A1, 6-(β-D-glucopyranos-1-yl)-1-(4-methoxyphenyl)indane], for which the values for the IC50 on SGLT2 and against SGLT1 were 0.01 to 1 µM and above 10 µM, respectively.

On to `COc1ccc([C@@H]2CCc3ccc([C@@H]4O[C@H](CO)[C@@H](O)[C@H](O)[C@H]4O)cc32)cc1` [Compound A2, 6-(β-D-glucopyranos-1-yl)-1S-(4-methoxyphenyl)indane], for which the half-maximal inhibitory concentration (IC50) against SGLT2 was 0.01 to 1 µM; against SGLT1, above 10 µM.

In the case of `CCOc1ccc(C2CCc3ccc([C@@H]4O[C@H](CO)[C@@H](O)[C@H](O)[C@H]4O)cc32)cc1` (stereo partly drawn) [Compound A4, 6-(β-D-Glucopyranos-1-yl)-1-(4-ethoxyphenyl)indane], the IC50 at SGLT2 is 0.01 to 1 µM; against SGLT1 it was above 10 µM.

Regarding `COc1ccc(C2CCCc3ccc([C@@H]4O[C@H](CO)[C@@H](O)[C@H](O)[C@H]4O)cc32)cc1` (stereo partly drawn) [Compound A5, 7-(β-D-Glucopyranos-1-yl)-1-(4-methoxyphenyl)-1,2,3,4-tetrahydro-naphthalene], the IC50 was 0.01 to 1 µM against SGLT2 and above 10 µM on SGLT1.

Consider `COc1ccc(C2=CCCc3ccc([C@]4(OC)O[C@H](CO)[C@@H](O)[C@H](O)[C@H]4O)cc32)cc1` [Compound A6, 7-(1-Methoxy-D-glucopyranos-1-yl)-1-(4-methoxyphenyl)-3,4-dihydronaphthalene], for which the IC50 on SGLT2 and on SGLT1 was above 10 µM in each case.

With `COc1ccc(C2COc3ccc([C@@H]4O[C@H](CO)[C@@H](O)[C@H](O)[C@H]4O)cc32)cc1` (stereo partly drawn) [Compound A9, 5-(β-D-Glucopyranos-1-yl)-3-(4-methoxyphenyl)-2,3-dihydrobenzofuran], the half-inhibitory concentration (IC50) against SGLT2 is 0.01 to 1 µM; against SGLT1 it was above 10 µM.

As for `CCOc1ccc(-n2ccc3ccc([C@@H]4O[C@H](CO)[C@@H](O)[C@H](O)[C@H]4O)cc32)cc1` [Compound A12, 6-(β-D-Glucopyranos-1-yl)-1-(4-ethoxyphenyl)indole], the IC50 on SGLT2 and on SGLT1 was above 10 µM throughout.

With `COc1ccc([C@@H]2COc3ccc([C@@H]4O[C@H](CO)[C@@H](O)[C@H](O)[C@H]4O)cc32)cc1` [Compound A13], the IC50 against SGLT2 is 0.01 to 1 µM; on SGLT1, above 10 µM.
